One data set relates to A549. Put plainly: Cytotoxicity against human A549 cells. The class given is functional. As to conditions: for EC50: Homo sapiens, A549, read-out: ED50 (the source's name).
A further data set concerns Artemia. Briefly: Toxicity in brine shrimp. As to conditions: in vivo. The format is organism-based.
A further data set relates to MIA PaCa-2. Briefly: Cytotoxicity against human MIA PaCa2 cells. The settings on record: for EC50: Homo sapiens, MIA PaCa-2, read-out: ED50 (the source's name). The class given is functional.
The next data set concerns PC-3. Briefly: Cytotoxicity against human PC-3 cells. The class given is functional. As to conditions: for EC50: Homo sapiens, PC-3, read-out: ED50 (the source's name).
A further data set concerns A498. Briefly: Cytotoxicity against human A-498 cells. The class given is functional. As to conditions: for EC50: Homo sapiens, A498, read-out: ED50 (the source's name).
The subject of a further data set is MCF7. Put plainly: Cytotoxicity against human MCF7 cells. As to conditions: for EC50: Homo sapiens, MCF7, read-out: ED50 (the source's name). The format is functional.
The test system of the next data set is HT-29. Briefly: Cytotoxicity against human HT-29 cells. The format is functional. As to conditions: for EC50: Homo sapiens, HT-29, read-out: ED50 (the source's name).
Another data set concerns KB. Briefly: Cytotoxicity against human KB cells. As to conditions: Homo sapiens, KB. The class given is functional, cell-based.
A further data set concerns Bel-7402. Put plainly: Cytotoxicity against human Bel-7402 cells. The class given is functional, cell-based.
The next data set has as its system HCT-8. Put plainly: Cytotoxicity against human HCT8 cells. The format is functional, cell-based.

Experimental findings from ChEMBL document CHEMBL1141818, “Annonaceous acetogenins: recent progress” (J Nat Prod, 1999) are described below.

In brackets after ≈: the same amount, converted by molar mass. Bounds are passed on as bounds.

As to `CCCCCCCCCC[C@@H](O)[C@H]1CC[C@@H]([C@H]2CC[C@H]([C@H](O)CCCCCCCCCC[C@@H]3CC(CC(C)=O)C(=O)O3)O2)O1` (mixture of isomers), the values for the ED50 in the data set with A549 and in the data set on MCF7 were 4.6 ×10⁻⁴ ug/ml and 1.3 ×10⁻⁸ ug/ml, respectively. Further, the LC50 in the data set on Artemia worked out at 2 ×10⁻² ug/ml. Further, the EC50 with MIA PaCa-2 came to 0.069 µg/mL; in the data set on PC-3 it was 2.8 µg/mL; in the data set on A498, 0.49 µg/mL; with HT-29, 1.6 µg/mL.

Turning to `CCCCCCCCCCCC[C@H](O)[C@H]1CC[C@H]([C@H](O)CCCCCC(O)CCCCCCC2CC(CC(C)=O)C(=O)O2)O1` (mixture of isomers) [(2,4-CIS/TRANS)-SQUAMOXINE B], the EC50 stood at 0.0038 µg/mL in the data set with A549; 0.05 µg/mL in the data set with PC-3; 0.004 µg/mL with A498; 0.0014 µg/mL in the data set on MCF7; 0.0027 µg/mL in the data set with HT-29. This compound returned an LC50 in the data set with Artemia of 4.6 ×10⁻² ug/ml. Moreover, in the data set on MIA PaCa-2, the ED50 is 8.3 ×10⁻⁴ ug/ml.

Turning to `CCCCCCCCCC[C@H](O)[C@H]1CC[C@H]([C@H]2CC[C@H]([C@H](O)CCCCCCCCCC[C@@H]3CC(CC(C)=O)C(=O)O3)O2)O1` (mixture of isomers) [BULLATACINONE], the EC50 came out at 1.9 µg/mL with A549; 1.1 µg/mL with MIA PaCa-2; 2.6 µg/mL with PC-3; 1.8 µg/mL with A498; 1.8 µg/mL in the data set on MCF7; 1.7 µg/mL in the data set on HT-29. Also, in the data set with Artemia, the LC50 stood at 7.4 ×10⁻² ug/ml.

Turning to `CCCCCCCCCC[C@H](O)[C@@H](O)CCCC[C@H]1CC[C@H]([C@H]2CC[C@H]([C@H](O)CCCCC[C@@H](O)CC3=C[C@H](C)OC3=O)O2)O1` (stereo in doubt) [GLACIN B], the ED50 came to 1.6 ×10⁻¹ ug/ml with A549; 2.8 ×10⁻¹ ug/ml in the data set with MIA PaCa-2; 1.2 µg/mL (≈ 1.88 µM) with PC-3; 1.4 µg/mL (≈ 2.19 µM) in the data set with A498; 1.8 ×10⁻³ ug/ml in the data set on MCF7; 1.9 ×10⁻² ug/ml in the data set on HT-29. For the same compound, the LC50 in the data set with Artemia is given as 3.1 ×10⁻¹ ug/ml.

With `CCCCCCCCCC[C@@H](O)[C@H]1CC[C@H]([C@H]2CC[C@H]([C@H](O)CCCCCCCC[C@@H](O)CCCC3=C[C@H](C)OC3=O)O2)O1` [BULLACIN], the ED50 in the data set with A549 is listed as 9 ×10⁻⁷ ug/ml; in the data set with MCF7, 2.5 ×10⁻⁷ ug/ml. Further, in the data set with Artemia, the LC50 is given as 1.9 ×10⁻² ug/ml. In addition, the EC50 was 0.41 µg/mL (≈ 0.658 µM) with MIA PaCa-2, greater than 1 µg/mL in the data set with PC-3, greater than 1 µg/mL in the data set on A498 and 0.0045 µg/mL (≈ 0.00722 µM) with HT-29.

A word on the IC50: it is the point on the concentration scale where inhibition reaches its midpoint. Low readings indicate greater potency, high ones weaker potency. As for `CCCCCCCCCCCC[C@@H](O)[C@H]1CC[C@H]([C@H](O)CCCC[C@H](O)CCCCC[C@H](CC2=C[C@@](C)(O)OC2=O)OC(C)=O)O1` [DONNAIENIN C], the figures for the IC50 in the data set with KB, with Bel-7402 and in the data set on HCT-8 were greater than 10 µg/mL, 7.1 µg/mL (≈ 10.8 µM) and greater than 10 µg/mL, respectively.

For `CCCCCCCCCCCC[C@@H](O)[C@H](O)CC[C@@H](O)[C@H](O)CCCC[C@H](O)CCCCC[C@H](CC1=C[C@@](C)(O)OC1=O)OC(C)=O` [DONNAIENIN D], the IC50 with KB, in the data set on Bel-7402 and in the data set with HCT-8 was greater than 10 µg/mL each time.

On to `CCCCCCCCCCCCCC[C@H](O)[C@@H]1C[C@@H](O)[C@@H]([C@@H](O)CC[C@@H](O)CCCCC[C@@H](O)CC2=C[C@H](C)OC2=O)O1` [DONNAIENIN], for which the IC50 with KB was greater than 10 µg/mL; in the data set on Bel-7402, 6.7 µg/mL (≈ 10.9 µM); in the data set with HCT-8, 6.6 µg/mL (≈ 10.8 µM).

Consider `CCCCC[C@H](O)CCCC[C@H](O)[C@H]1CC[C@H]([C@H]2CC[C@H]([C@H](O)CCCC[C@H](O)CCCCCCCC3=C[C@H](C)OC3=O)O2)O1` [PURPURENIN], for which the EC50 in the data set on A549 turned out to be 1.3 µg/mL (≈ 2.03 µM); with MIA PaCa-2, 2 µg/mL (≈ 3.13 µM); in the data set on PC-3, 1.1 µg/mL (≈ 1.72 µM); in the data set on A498, 1.3 µg/mL (≈ 2.03 µM); with MCF7, 1.7 µg/mL (≈ 2.66 µM); in the data set with HT-29, 0.32 µg/mL (≈ 0.501 µM). The same compound showed an LC50 in the data set on Artemia of 2.9 ×10⁻² ug/ml.
